Experimental findings from the SangsterLogP compilation are described below.

A short description of the series: method code SF-AS, from PMID: 9631499.

The term logP denotes a log measure of how a compound divides between an organic and an aqueous phase. Consider `Cc1cccc(-c2nnc(CCON=Cc3ccc(Cl)cc3Cl)o2)c1`, for which the logP was determined as 4.28.

With `Cc1ccc(-c2nnc(CCON=Cc3ccc(Cl)cc3Cl)[nH]2)cc1`, the logP stood at 4.1.

`Clc1ccc(C=NOCCc2nnc(-c3ccccc3)[nH]2)cc1` gave a logP of 2.83.

`Cc1ccc(-c2nnc(CCON=Cc3ccc(Cl)cc3)[nH]2)cc1` gave a logP of 3.39. For `Clc1ccc(C=NOCCc2nnc(-c3ccccc3)o2)c(Cl)c1` the value was 3.72; for `Clc1ccc(C=NOCCc2nnc(-c3ccccc3)o2)cc1`, 3.01; for `Cc1ccc(-c2nnc(CCON=Cc3ccc(Cl)cc3)o2)cc1`, 3.57. For `Cc1cccc(-c2nnc(CCON=Cc3ccc(Cl)cc3Cl)[nH]2)c1` the value was 4.1; for `Cc1cccc(-c2nnc(CCON=Cc3ccc(Cl)cc3)[nH]2)c1`, 3.39; for `Cc1ccc(C=NOCCc2nnc(-c3cccc(C)c3)o2)cc1`, 3.57. `Cc1ccc(-c2nnc(CCON=Cc3ccc(Cl)cc3Cl)o2)cc1` showed a lipophilicity (logP) of 4.28.
